Data as given in patent US20130345214A1, “Lipoxygenase Inhibitors” (SRI International, Inc., priority 2011, published 2013).
“Also recorded” adds a separate entry of the source.

Assays:
[1] = target: T1, human 12-LOX (Homo sapiens, UniProt P18054); experiment: colorimetric platelet 12-LOX activity assay (ferric oxidation of xylenol orange, human blood platelets); assay type: cell-based
T1 construct: ferric oxidation of xylenol orange from arachidonic acid in human blood platelets; endogenous in cells; host or cells: human blood platelets
T1 sequence (P18054 1-663): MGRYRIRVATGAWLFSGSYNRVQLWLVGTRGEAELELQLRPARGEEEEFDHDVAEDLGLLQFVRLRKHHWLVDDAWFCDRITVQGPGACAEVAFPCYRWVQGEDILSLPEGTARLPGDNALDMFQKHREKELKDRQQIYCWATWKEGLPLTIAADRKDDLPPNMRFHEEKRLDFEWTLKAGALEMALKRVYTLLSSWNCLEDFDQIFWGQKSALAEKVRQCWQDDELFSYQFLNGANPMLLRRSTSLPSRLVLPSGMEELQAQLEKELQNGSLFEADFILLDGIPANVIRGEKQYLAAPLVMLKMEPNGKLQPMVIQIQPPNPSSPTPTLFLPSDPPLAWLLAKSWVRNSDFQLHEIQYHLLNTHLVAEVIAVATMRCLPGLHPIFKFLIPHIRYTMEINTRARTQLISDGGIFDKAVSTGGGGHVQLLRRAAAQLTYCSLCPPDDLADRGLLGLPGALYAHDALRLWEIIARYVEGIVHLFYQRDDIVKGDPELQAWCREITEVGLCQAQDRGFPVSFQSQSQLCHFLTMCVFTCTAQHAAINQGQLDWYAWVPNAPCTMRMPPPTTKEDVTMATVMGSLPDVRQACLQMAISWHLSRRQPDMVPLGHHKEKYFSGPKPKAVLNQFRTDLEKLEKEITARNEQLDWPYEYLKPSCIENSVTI
Description: (§1) Table 3 provides results for exemplary subject bisindole compounds on 5-LOX, 12-LOX and 15-LOX.

[2] = target: T2, 5-LOX (Homo sapiens, UniProt P09917); experiment: enzyme panel screening, 5-LOX; assay type: biochemical
T2 sequence (P09917 1-674): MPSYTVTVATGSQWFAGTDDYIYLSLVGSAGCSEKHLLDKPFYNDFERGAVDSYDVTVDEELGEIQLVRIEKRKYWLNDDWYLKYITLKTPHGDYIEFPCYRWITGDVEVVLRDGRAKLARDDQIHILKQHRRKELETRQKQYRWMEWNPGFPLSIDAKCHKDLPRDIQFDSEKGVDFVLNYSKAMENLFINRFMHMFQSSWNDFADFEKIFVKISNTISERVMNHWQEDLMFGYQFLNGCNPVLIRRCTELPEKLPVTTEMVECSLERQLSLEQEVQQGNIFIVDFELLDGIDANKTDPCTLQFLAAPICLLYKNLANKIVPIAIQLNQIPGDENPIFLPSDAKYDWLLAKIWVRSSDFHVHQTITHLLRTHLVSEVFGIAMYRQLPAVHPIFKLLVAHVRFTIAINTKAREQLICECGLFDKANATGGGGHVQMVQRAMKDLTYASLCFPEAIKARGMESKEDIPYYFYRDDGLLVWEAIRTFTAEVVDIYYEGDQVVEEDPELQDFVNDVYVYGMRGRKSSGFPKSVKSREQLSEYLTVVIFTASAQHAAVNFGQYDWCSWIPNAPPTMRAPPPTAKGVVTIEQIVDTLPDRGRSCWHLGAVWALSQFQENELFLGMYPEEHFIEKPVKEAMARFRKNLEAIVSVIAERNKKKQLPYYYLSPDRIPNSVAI

[3] = tested on: 15-LOX; experiment: enzyme panel screening, 15-LOX; assay type: biochemical
[4] = target: COX-1 (Homo sapiens, UniProt P23219); experiment: effect on cyclooxygenase COX-1 activity; assay type: biochemical
[5] = target: T3, COX-2 (Homo sapiens, UniProt P35354); experiment: effect on cyclooxygenase COX-2 activity; assay type: biochemical
T3 sequence (P35354 18-604): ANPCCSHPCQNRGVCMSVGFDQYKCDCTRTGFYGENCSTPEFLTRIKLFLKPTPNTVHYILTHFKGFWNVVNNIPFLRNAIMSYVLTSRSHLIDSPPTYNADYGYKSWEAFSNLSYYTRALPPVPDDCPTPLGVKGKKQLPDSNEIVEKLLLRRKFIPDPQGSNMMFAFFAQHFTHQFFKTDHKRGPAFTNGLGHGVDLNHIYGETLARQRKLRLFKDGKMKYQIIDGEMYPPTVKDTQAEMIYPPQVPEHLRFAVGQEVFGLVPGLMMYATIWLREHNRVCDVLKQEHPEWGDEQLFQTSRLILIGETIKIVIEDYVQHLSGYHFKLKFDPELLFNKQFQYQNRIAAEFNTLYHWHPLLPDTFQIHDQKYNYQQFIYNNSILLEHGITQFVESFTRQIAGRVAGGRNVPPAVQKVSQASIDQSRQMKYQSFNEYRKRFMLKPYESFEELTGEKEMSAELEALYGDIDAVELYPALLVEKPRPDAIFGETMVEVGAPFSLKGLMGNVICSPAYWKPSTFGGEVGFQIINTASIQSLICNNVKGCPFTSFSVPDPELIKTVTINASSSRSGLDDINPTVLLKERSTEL

[6] = target: kinase targets, including Akt(1,2,3), PI3K, and PDK1; experiment: kinase panel screening; assay type: biochemical; settings: broad selection of kinase targets incl. Akt(1,2,3)
[7] = tested on: Akt and ERK activation; experiment: Akt and ERK activation; assay type: cell-based; settings: by inhibiting 12-LOX mediated metabolism of arachidonic acid
[8] = glucose metabolism and body weight in mice after oral treatment; assay type: in vivo
[9] = target: T2, 5-LOX; experiment: fluorescence-based enzyme assay of human 5-LOX (Table 3); assay type: biochemical; settings: 3 μM
Description: as §1

[10] = target: T4, 15-LOX-2 (Homo sapiens, UniProt O15296); experiment: in vitro 15-LOX-2 inhibition (Table 3); assay type: biochemical
T4 sequence (O15296 1-676): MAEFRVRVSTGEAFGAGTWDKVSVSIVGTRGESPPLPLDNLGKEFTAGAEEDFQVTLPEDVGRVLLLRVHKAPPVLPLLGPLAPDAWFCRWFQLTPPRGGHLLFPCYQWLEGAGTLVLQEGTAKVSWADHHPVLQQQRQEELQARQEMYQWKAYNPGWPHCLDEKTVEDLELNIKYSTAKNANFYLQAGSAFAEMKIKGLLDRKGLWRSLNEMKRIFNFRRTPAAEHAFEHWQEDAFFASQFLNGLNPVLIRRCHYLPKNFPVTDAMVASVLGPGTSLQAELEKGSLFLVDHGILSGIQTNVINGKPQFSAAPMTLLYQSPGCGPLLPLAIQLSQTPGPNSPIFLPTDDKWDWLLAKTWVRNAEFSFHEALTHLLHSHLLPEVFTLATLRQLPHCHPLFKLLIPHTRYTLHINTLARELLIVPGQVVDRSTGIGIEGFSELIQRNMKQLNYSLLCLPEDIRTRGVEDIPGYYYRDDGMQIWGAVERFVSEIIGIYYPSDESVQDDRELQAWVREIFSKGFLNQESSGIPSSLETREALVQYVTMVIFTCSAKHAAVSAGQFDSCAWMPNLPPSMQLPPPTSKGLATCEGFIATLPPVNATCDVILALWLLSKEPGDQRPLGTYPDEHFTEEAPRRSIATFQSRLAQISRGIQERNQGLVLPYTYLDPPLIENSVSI
Description: as §1

Chain of COX-1 (P23219 24-599): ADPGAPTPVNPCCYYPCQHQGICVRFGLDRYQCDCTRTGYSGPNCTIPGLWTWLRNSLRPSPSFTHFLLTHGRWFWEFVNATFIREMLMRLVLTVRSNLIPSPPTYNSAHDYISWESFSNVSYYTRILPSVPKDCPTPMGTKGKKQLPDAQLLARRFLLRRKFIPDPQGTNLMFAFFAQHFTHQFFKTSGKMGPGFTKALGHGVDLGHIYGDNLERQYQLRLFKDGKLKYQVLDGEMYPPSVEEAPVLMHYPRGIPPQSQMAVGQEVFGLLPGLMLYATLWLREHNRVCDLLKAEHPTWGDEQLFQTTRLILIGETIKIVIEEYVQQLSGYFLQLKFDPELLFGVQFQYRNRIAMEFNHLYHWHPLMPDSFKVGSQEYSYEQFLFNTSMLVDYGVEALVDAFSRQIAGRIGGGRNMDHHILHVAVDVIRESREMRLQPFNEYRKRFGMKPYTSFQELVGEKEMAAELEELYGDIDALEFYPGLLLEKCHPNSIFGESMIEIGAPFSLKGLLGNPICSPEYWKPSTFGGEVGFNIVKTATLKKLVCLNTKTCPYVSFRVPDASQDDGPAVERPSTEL

Row | SMILES | inhibition at 3 µM [9] [%] | inhibition at 3 µM [1] [%] | inhibition at 3 µM [10] [%] | other results
1 | CCOC(=O)c1ccc2[nH]c3c(OC)c4[nH]c5ccc(C(=O)OCC)cc5c4cc3c2c1 [Compound (1)] |  |  |  | 12-LOX enzyme activity inhibition ([1]; 10 uM, human blood platelets, cell-based assay): inhibit 12-LOX enzyme activity; IC50 ([1]; cell-based enzyme assay): 10 nM; selectivity for 12-LOX ([1]; versus panels of kinases and enzymes incl. 5-LOX and 15-LOX): selective for 12-LOX; also recorded: selectively inhibits 12-lipoxygenase enzyme activity; also recorded: selectively inhibits human 12-LOX; effect on 5-LOX activity [2]: does not significantly affect the activity; effect on 15-LOX activity [3]: does not significantly affect the activity; effect on COX-1 activity [4]: does not significantly affect the activity; effect on COX-2 activity [5]: does not significantly affect the activity; kinase inhibition [6]: not a kinase inhibitor; Akt and ERK activation [7]: inhibit Akt and ERK activation; effects on glucose metabolism [8]: no adverse effects on glucose metabolism; effects on body weights ([8]; oral, 500 mg/kg/day, 14 days): no adverse effects; effects on fasting glucose levels ([8]; oral, 500 mg/kg/day, 14 days): no adverse effects
2 | CN(C)CCOc1c2[nH]c3ccc(F)cc3c2cc2c1[nH]c1ccc(F)cc12 [drawing 7] | 90 | 78 | 46 | 
3 | CN(C)CCOc1c2[nH]c3ccc(F)cc3c2c(Cl)c2c1[nH]c1ccc(F)cc12 [drawing 18] | 75 | 85 | 17 | 
4 | Nc1nnn(CCOc2c3[nH]c4ccc(Cl)cc4c3cc3c2[nH]c2ccc(Cl)cc23)n1 [drawing 9] | 70 | 77 | 19 | 
5 | N=C(N)NCCCOc1c2[nH]c3ccc(F)cc3c2cc2c1[nH]c1ccc(F)cc12 [drawing 11] | 95 | 79 | 66 | 
